According to patent US20050233058A1, “Aminoacid derivatives of dicarboxylic acids as flavor ingredients” (priority 2004, published 2005):

Assay: Organoleptic description of the compounds (umami, mouthfeel)
Conditions: for Additional feeling imparted: in a meet type application

Row | Compound | Taste / organoleptic character of the compound | Additional feeling imparted
1 | O=C(O)CCC(=O)N[C@@H](CCC(=O)O)C(=O)O [succinoyl-Glu, N-(3-carboxypropionyl)-glutamic acid] | slightly acidic note together with a well perceivable umami taste or character having a broth connotation | 
2 | CC(C)C[C@H](NC(=O)CCCC(=O)O)C(=O)O [Glutaryl-Leu, N-(4-carboxybutanoyl)-L-leucine] |  | slightly more fatty feeling
3 | O=C(O)/C=C\C(=O)N[C@@H](CCC(=O)O)C(=O)O [Maleyl-Glu, (Z)-N-(3-carboxy-2-propenoyl)-L-glutamic acid] |  | slightly more juicy feeling
4 | O=C(O)CCCC(=O)N[C@@H](CCC(=O)O)C(=O)O [glutaryl-Glu, N-(4-carboxybutanoyl)L-glutamic acid] |  | slightly more fatty feeling
5 | CC(C)C[C@H](NC(=O)CCC(=O)O)C(=O)O [succinoyl-Leu, N-(3-carboxypropionyl)leucine] | slightly more acidic and slightly less umami taste than the one of succinoyl-Glu | 
